Columns and labels:
CD19+ mKate2+A549 cells = test: CAR-T tumor spheroid killing assay; assay type: cell-based, human
Description: CD19+ mKate2+A549 cells were produced by lentiviral transduction using pCDH-CMV-CD19 puro and ILV-EF1a-mKate-9-X01 (Flash therapeutics) lentivectors. 1,000 cells were plated 4 days prior to co-culture in low-cluster 96 well plates (Costar #7007) and allowed to form spheroids in DMEM 10% FBS 5% PS. Total CD3+ T cells were isolated by negative selection from PBMCs (Stemcell #17951) and stimulated with Dynabeads at a ratio of 1:3 (beads:cell). Cells were cultured at 1 million per ml in X-VIVO 15 with 5% PS, 5% decomplemented human serum (Sigma) and 50 μM 2-mercaptoethanol (GIBCO #31350-010). 24 hours following TCR stimulation 100,000 cells in 100 μl were co-transduced with 100 μl of lentivector viral particles (pTRIP-SFFV-GFP or pTRIP-SFFV-GFPRELAK5R) combined with the CAR lentivirus (rLV.EFA.19BBz, Flash therapeutics) at a multiplicity of infection (MOI) of 10 (corresponding usually to less than 1 μl). Spinoculation was carried out at 1200 g for 2 hours at 25° C. Cells were expanded for 48 hours with fresh media and 300 U/ml IL-2. 3 days following transduction T cells were stained with CD19 CAR detection reagent (miltenyi 130-115-965) for 15 minutes at 4° C., washed twice and subsequently with secondary antibody (invitrogen #S21374) for 30 minutes at 4° C. Cells were fixed and acquired on a FACSVerse (BD). The next day, Dynabeads were removed by magnetic separation and 250, 500 or 1,000 CAR+ cells were added per well of A549 spheroids in quadruplicates. Plates were then placed in an IncuCyteS3 and images were acquired using a 10× objective ([…]/pixel) every 3 hours for 5 to 6 days. Images were analysed using the IncuCyte S3 software. At the end of the culture, supernatants were harvested and assayed for IFN concentrations.

[1] = test system: IFNL1 and IFNB transcripts; test: RT-qPCR gene expression analysis in CD4+ T cells; assay type: cell-based, human; details: IRF3 over-expression in CD4+ T cells, data not shown
Description: RNA was extracted from 0.4-1 million cells using the Nucleospin RNA II kits (Macherey-Nagel #740955.50). cDNA was synthesized using random primers (invitrogen #48190-011) from 0.1 μg RNA using Superscript III Reverse transcriptase (fisher scientific #18080044). Real-time qPCR (RT-qPCR) was carried out in 20 μl reactions using SYBR Green I Master (Roche #4887352001). Primers used were as follows: […]

## RELA K5R: RELA mutant converting five lysine residues (K122, K123, K310, K314, K315) to arginine, expressed from lentivector
CD19+ mKate2+A549 cells; 6 days co-culture, all dilutions of CART and RELA K5R cells
  IFNL1 at the end of co-culture: detected
CD19+ mKate2+A549 cells; FIG. 6F, left panel
  tumor growth with lower numbers of CAR T cells: delay of tumor growth was also observed
CD19+ mKate2+A549 cells; co-culture 5-6 days, CAR-positive cell numbers normalized, FIG. 6E, 6F
  tumor spheroid size / elimination of tumor cells: significantly more efficiently eliminated
CD19+ mKate2+A549 cells; data not shown
  proliferation rates as cause of improved killing capacity: not due to increased proliferation rates

B1: IRF3: interferon Regulatory Factor 3, over-expressed from lentivector (protein, UniProt Q14653 1-427, looked up)
Interferon regulatory factor 3: MGTPKPRILPWLVSQLDLGQLEGVAWVNKSRTRFRIPWKHGLRQDAQQEDFGIFQAWAEATGAYVPGRDKPDLPTWKRNFRSALNRKEGLRLAEDRSKDPHDPHKIYEFVNSGVGDFSQPDTSPDTNGGGSTSDTQEDILDELLGNMVLAPLPDPGPPSLAVAPEPCPQPLRSPSLDNPTPFPNLGPSENPLKRLLVPGEEWEFEVTAFYRGRQVFQQTISCPEGLRLVGSEVGDRTLPGWPVTLPDPGMSLTDRGVMSYVRHVLSCLGGGLALWRAGQWLWAQRLGHCHTYWAVSEELLPNSGHGPDGEVPKDKEGGVFDLGPFIVDLITFTEGSGRSPRYALWFCVGESWPQDQPWTKRLVMVKVVPTCLRALVEMARVGGASSLENTVDLHISNSHPLSLTSDQYKAYLQDLVEGMDFQGPGES
[1]
  IFNL1 and IFNB transcripts in response to cGAMP: increased
